From ChEMBL document CHEMBL5724806, “Unraveling interindividual differences and functional consequences of gut microbial metabolism of immunosuppressants” (2024)

How the values were obtained:
Format in all cases: ADME
[1] = The drug is tested on Alloscardovia omnicolens strain: DSM21503 for biotransformation under anaerobic condition. The drug concentrations were measured over 6 timepoints collected between 0 and 12 hours of incubation by liquid-chromatography-coupled mass spectrometry (LC–MS); set-up: dose 5 uM, timepoint 0, 1.5, 3, 6, 9, 12 hours; conditions: 5 µM
[2] = The drug is tested on Bacteroides thetaiotaomicron strain: DSM2079 for biotransformation under anaerobic condition. The drug concentrations were measured over 6 timepoints collected between 0 and 12 hours of incubation by liquid-chromatography-coupled mass spectrometry (LC–MS); set-up: dose 5 uM, timepoint 0, 1.5, 3, 6, 9, 12 hours; conditions: 5 µM
[3] = The drug is tested on Bacteroides xylanisolvens strain: HM 722 for biotransformation under anaerobic condition. The drug concentrations were measured over 6 timepoints collected between 0 and 12 hours of incubation by liquid-chromatography-coupled mass spectrometry (LC–MS); set-up: dose 5 uM, timepoint 0, 1.5, 3, 6, 9, 12 hours; conditions: 5 µM
[4] = The drug is tested on Blautia hansenii strain: DSM20583 for biotransformation under anaerobic condition. The drug concentrations were measured over 6 timepoints collected between 0 and 12 hours of incubation by liquid-chromatography-coupled mass spectrometry (LC–MS); set-up: dose 5 uM, timepoint 0, 1.5, 3, 6, 9, 12 hours; conditions: 5 µM
[5] = The drug is tested on Clostridium scindens strain: DSM5676 for biotransformation under anaerobic condition. The drug concentrations were measured over 6 timepoints collected between 0 and 12 hours of incubation by liquid-chromatography-coupled mass spectrometry (LC–MS); set-up: dose 5 uM, timepoint 0, 1.5, 3, 6, 9, 12 hours; conditions: 5 µM
[6] = The drug is tested on Eubacterium eligens strain: DSM3376 for biotransformation under anaerobic condition. The drug concentrations were measured over 6 timepoints collected between 0 and 12 hours of incubation by liquid-chromatography-coupled mass spectrometry (LC–MS); set-up: dose 5 uM, timepoint 0, 1.5, 3, 6, 9, 12 hours; conditions: lachnospira eligens, 5 µM
[7] = The drug is tested on Eubacterium hallii strain: DSM3353 for biotransformation under anaerobic condition. The drug concentrations were measured over 6 timepoints collected between 0 and 12 hours of incubation by liquid-chromatography-coupled mass spectrometry (LC–MS); set-up: dose 5 uM, timepoint 0, 1.5, 3, 6, 9, 12 hours; conditions: anaerobutyricum hallii, 5 µM
[8] = The drug is tested on Faecalibacterium prausnitzii strain: DSM17677 for biotransformation under anaerobic condition. The drug concentrations were measured over 6 timepoints collected between 0 and 12 hours of incubation by liquid-chromatography-coupled mass spectrometry (LC–MS); set-up: dose 5 uM, timepoint 0, 1.5, 3, 6, 9, 12 hours; conditions: faecalibacterium duncaniae, 5 µM
[9] = The drug is tested on Lactobacillus gasseri strain: DSM20243 for biotransformation under anaerobic condition. The drug concentrations were measured over 6 timepoints collected between 0 and 12 hours of incubation by liquid-chromatography-coupled mass spectrometry (LC–MS); set-up: dose 5 uM, timepoint 0, 1.5, 3, 6, 9, 12 hours; conditions: 5 µM
[10] = The drug is tested on Roseburia intestinalis strain: DSM14610 for biotransformation under anaerobic condition. The drug concentrations were measured over 6 timepoints collected between 0 and 12 hours of incubation by liquid-chromatography-coupled mass spectrometry (LC–MS); set-up: dose 5 uM, timepoint 0, 1.5, 3, 6, 9, 12 hours; conditions: 5 µM
[11] = The drug is tested on Streptococcus mitis strain: DSM12643 for biotransformation under anaerobic condition. The drug concentrations were measured over 6 timepoints collected between 0 and 12 hours of incubation by liquid-chromatography-coupled mass spectrometry (LC–MS); set-up: dose 5 uM, timepoint 0, 1.5, 3, 6, 9, 12 hours; conditions: 5 µM
[12] = The drug is tested on Enterococcus faecalis strain: ATCC29212 for biotransformation under anaerobic condition. The drug concentrations were measured over 6 timepoints collected between 0 and 12 hours of incubation by liquid-chromatography-coupled mass spectrometry (LC–MS); set-up: dose 5 uM, timepoint 0, 1.5, 3, 6, 9, 12 hours; conditions: 5 µM
[13] = The drug is tested on Akkermansia muciniphila strain: DSM22959 for biotransformation under anaerobic condition. The drug concentrations were measured over 6 timepoints collected between 0 and 12 hours of incubation by liquid-chromatography-coupled mass spectrometry (LC–MS); set-up: dose 5 uM, timepoint 0, 1.5, 3, 6, 9, 12 hours; conditions: 5 µM
[14] = The drug is tested on Actinomyces naeslundi strain: DSM43013 for biotransformation under microaerobic condition. The drug concentrations were measured over 6 timepoints collected between 0 and 12 hours of incubation by liquid-chromatography-coupled mass spectrometry (LC–MS); set-up: dose 5 uM, timepoint 0, 1.5, 3, 6, 9, 12 hours; conditions: actinomyces naeslundii, 5 µM
[15] = The drug is tested on Capnocytophaga ochracea strain: DSM7271 for biotransformation under microaerobic condition. The drug concentrations were measured over 6 timepoints collected between 0 and 12 hours of incubation by liquid-chromatography-coupled mass spectrometry (LC–MS); set-up: dose 5 uM, timepoint 0, 1.5, 3, 6, 9, 12 hours; conditions: 5 µM
[16] = The drug is tested on Lactobacillus reuteri strain: DSM20016 for biotransformation under microaerobic condition. The drug concentrations were measured over 6 timepoints collected between 0 and 12 hours of incubation by liquid-chromatography-coupled mass spectrometry (LC–MS); set-up: dose 5 uM, timepoint 0, 1.5, 3, 6, 9, 12 hours; conditions: limosilactobacillus reuteri, 5 µM
[17] = The drug is tested on Lactobacillus ruminis strain: ATCC25644 for biotransformation under microaerobic condition. The drug concentrations were measured over 6 timepoints collected between 0 and 12 hours of incubation by liquid-chromatography-coupled mass spectrometry (LC–MS); set-up: dose 5 uM, timepoint 0, 1.5, 3, 6, 9, 12 hours; conditions: ligilactobacillus ruminis, 5 µM
[18] = The drug is tested on Streptococcus anginosus strain: DSM20563 for biotransformation under microaerobic condition. The drug concentrations were measured over 6 timepoints collected between 0 and 12 hours of incubation by liquid-chromatography-coupled mass spectrometry (LC–MS); set-up: dose 5 uM, timepoint 0, 1.5, 3, 6, 9, 12 hours; conditions: 5 µM
[19] = The drug is tested on the gut metagenome community of A-06 with ENA study accession number: PRJEB31790 for biotransformation under anaerobic condition. The drug concentrations were measured over 7 timepoints collected between 0 and 12 hours of incubation by liquid-chromatography-coupled mass spectrometry (LC–MS); set-up: dose 5 uM, timepoint 0, 0.75, 1.5, 3, 6, 9, 12 hours; conditions: 5 µM
[20] = The drug is tested on the gut metagenome community of P-02 with ENA study accession number: PRJEB31790 for biotransformation under anaerobic condition. The drug concentrations were measured over 7 timepoints collected between 0 and 12 hours of incubation by liquid-chromatography-coupled mass spectrometry (LC–MS); set-up: dose 5 uM, timepoint 0, 0.75, 1.5, 3, 6, 9, 12 hours; conditions: 5 µM
[21] = The drug is tested on the gut metagenome community of P-04 with ENA study accession number: PRJEB31790 for biotransformation under anaerobic condition. The drug concentrations were measured over 7 timepoints collected between 0 and 12 hours of incubation by liquid-chromatography-coupled mass spectrometry (LC–MS); set-up: dose 5 uM, timepoint 0, 0.75, 1.5, 3, 6, 9, 12 hours; conditions: 5 µM
[22] = The drug is tested on the gut metagenome community of T-02 with ENA study accession number: PRJEB31790 for biotransformation under anaerobic condition. The drug concentrations were measured over 7 timepoints collected between 0 and 12 hours of incubation by liquid-chromatography-coupled mass spectrometry (LC–MS); set-up: dose 5 uM, timepoint 0, 0.75, 1.5, 3, 6, 9, 12 hours; conditions: 5 µM
[23] = The drug is tested on the gut metagenome community of A-06 with ENA study accession number: PRJEB31790 for biotransformation under microaerobic condition. The drug concentrations were measured over 7 timepoints collected between 0 and 12 hours of incubation by liquid-chromatography-coupled mass spectrometry (LC–MS); set-up: dose 5 uM, timepoint 0, 0.75, 1.5, 3, 6, 9, 12 hours; conditions: 5 µM
[24] = The drug is tested on the gut metagenome community of P-02 with ENA study accession number: PRJEB31790 for biotransformation under microaerobic condition. The drug concentrations were measured over 7 timepoints collected between 0 and 12 hours of incubation by liquid-chromatography-coupled mass spectrometry (LC–MS); set-up: dose 5 uM, timepoint 0, 0.75, 1.5, 3, 6, 9, 12 hours; conditions: 5 µM
[25] = The drug is tested on the gut metagenome community of T-03 with ENA study accession number: PRJEB31790 for biotransformation under microaerobic condition. The drug concentrations were measured over 7 timepoints collected between 0 and 12 hours of incubation by liquid-chromatography-coupled mass spectrometry (LC–MS); set-up: dose 5 uM, timepoint 0, 0.75, 1.5, 3, 6, 9, 12 hours; conditions: 5 µM
[26] = The drug is tested on the gut metagenome community of T-05 with ENA study accession number: PRJEB31790 for biotransformation under microaerobic condition. The drug concentrations were measured over 7 timepoints collected between 0 and 12 hours of incubation by liquid-chromatography-coupled mass spectrometry (LC–MS); set-up: dose 5 uM, timepoint 0, 0.75, 1.5, 3, 6, 9, 12 hours; conditions: 5 µM

Measured: Bacterial Biotransformation

CCOC(=O)[C@H](CCc1ccccc1)N[C@@H](C)C(=O)N1[C@H](C(=O)O)C[C@@H]2CCC[C@@H]21
Compound NOT metabolized: all assays above

C[C@@H](NCCCc1cccc(C(F)(F)F)c1)c1cccc2ccccc12
Compound NOT metabolized: all assays above

CC(C)NCC(O)COc1ccc(CC(N)=O)cc1 (stereo not drawn) [ATENOLOL]
Compound NOT metabolized: all assays above
